Test results taken from ChEMBL document CHEMBL3046254, “Antifeedant Activity Evaluation of Withanolides from Jaborosa integrifolia” (2000).

What was measured:
Spodoptera littoralis [1] = experiment: Antifeedant activity against Spodoptera littoralis assessed as inhibition of diet consumption at 20 ug/cm2 by leaf disk choice assay relative to control; type: functional; conditions: foliar
Spodoptera littoralis [2] = experiment: Antifeedant activity against Spodoptera littoralis assessed as inhibition of diet consumption by leaf disk choice assay relative to control; type: functional

| Compound | inhibition at 20 µg/cm2 (Spodoptera littoralis [1]) | inhibition (INH) (Spodoptera littoralis [2]) |
| --- | --- | --- |
| CC1=C(CO)C(=O)O[C@@H]([C@@H](C)[C@H]2CC[C@H]3[C@@H]4C[C@H]5O[C@]56CC=CC(=O)[C@]6(C)[C@H]4CC[C@]23C)C1 [JABOROSALACTONE A] | 74% | – |
| CC1=C(CO)C(=O)O[C@@H]([C@@H](C)[C@H]2CC[C@H]3[C@@H]4C[C@@H](O)C5=CC=CC(=O)[C@]5(C)[C@H]4CC[C@]23C)C1 [JABOROSALACTONE B] | – | 19% |
| CC1=C(CO)C(=O)O[C@@H]([C@@H](C)[C@H]2CC[C@H]3[C@@H]4C[C@@H](O)[C@@]5(O)CC=CC(=O)[C@]5(C)[C@H]4CC[C@]23C)C1 [JABOROSALACTONE D] | – | -19% |
